We go through five compounds from ChEMBL document CHEMBL3997813, “Selective inhibition of monoamine oxidase A by purpurin, an anthraquinone” (Bioorg Med Chem Lett, 2017).

The target in data set [1] is T1, Amine oxidase [flavin-containing] A (Homo sapiens, UniProt P21397).
T1 sequence (P21397 whole entry): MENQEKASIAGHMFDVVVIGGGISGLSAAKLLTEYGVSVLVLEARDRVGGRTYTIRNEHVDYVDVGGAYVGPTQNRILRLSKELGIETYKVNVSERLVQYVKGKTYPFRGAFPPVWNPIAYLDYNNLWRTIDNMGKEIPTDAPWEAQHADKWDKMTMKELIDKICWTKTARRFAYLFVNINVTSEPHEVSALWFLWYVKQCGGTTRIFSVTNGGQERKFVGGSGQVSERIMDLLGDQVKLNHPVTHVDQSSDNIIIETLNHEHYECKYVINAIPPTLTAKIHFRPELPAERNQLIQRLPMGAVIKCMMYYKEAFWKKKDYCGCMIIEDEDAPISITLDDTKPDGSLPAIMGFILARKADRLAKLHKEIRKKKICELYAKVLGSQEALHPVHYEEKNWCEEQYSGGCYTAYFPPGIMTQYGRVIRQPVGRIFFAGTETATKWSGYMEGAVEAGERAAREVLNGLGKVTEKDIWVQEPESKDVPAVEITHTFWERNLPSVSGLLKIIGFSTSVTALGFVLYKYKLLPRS
Kind of data set: Inhibition of recombinant human MAO-A using kynuramine as substrate incubated for 10 mins.

Data set [2] deals with T2, Amine oxidase [flavin-containing] B (Homo sapiens, UniProt P27338).
T2 sequence (P27338 whole entry): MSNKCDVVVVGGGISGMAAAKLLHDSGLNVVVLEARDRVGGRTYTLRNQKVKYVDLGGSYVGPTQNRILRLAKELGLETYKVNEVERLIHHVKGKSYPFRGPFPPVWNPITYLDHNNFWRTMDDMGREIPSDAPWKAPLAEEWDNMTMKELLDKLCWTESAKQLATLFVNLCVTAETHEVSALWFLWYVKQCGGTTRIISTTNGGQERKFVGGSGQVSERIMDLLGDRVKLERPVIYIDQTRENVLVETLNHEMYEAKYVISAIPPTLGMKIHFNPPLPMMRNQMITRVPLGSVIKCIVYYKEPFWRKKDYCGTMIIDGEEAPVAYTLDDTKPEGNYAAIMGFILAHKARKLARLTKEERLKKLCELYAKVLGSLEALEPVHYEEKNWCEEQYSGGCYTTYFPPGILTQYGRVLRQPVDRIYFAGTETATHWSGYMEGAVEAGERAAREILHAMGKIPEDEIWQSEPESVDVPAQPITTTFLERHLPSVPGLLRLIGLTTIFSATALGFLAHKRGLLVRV
Put plainly: Inhibition of recombinant human MAO-B using benzylamine as substrate preincubated for 15 mins.

Data set [3] has as its target T2, Amine oxidase [flavin-containing] B. Kind of data set: Inhibition of recombinant human MAO-B using benzylamine as substrate at 40 uM after 15 mins relative to control. The conditions noted are these: 0.25 h.
Data set [4] addresses T1, Amine oxidase [flavin-containing] A. Put plainly: Time-dependent inhibition of recombinant human MAO-A preincubated up to 30 mins followed by addition of 0.2 mM of kynuramine as substrate.
The target is the same in data set [5]. Put plainly: Inhibition of recombinant human MAO-A assessed as residual activity at 5 uM using 0.2 mM kynuramine as substrate incubated for 10 mins. As to conditions: read-out: Activity; call rule not given here.
Data set [6] shares this target. Put plainly: Reversible inhibition of recombinant human MAO-A assessed as residual activity at 5 uM preincubated for 10 mins in presence of kynuramine substrate followed by re-addition of 0.2 mM of substrate measured after 10 mins. The conditions noted are these: read-out: Activity.
Data set [7] shares this target. Put plainly: Inhibition of recombinant human MAO-A assessed as residual activity at 5 uM using 0.4 mM of kynuramine as substrate after 10 mins. The conditions noted are these: read-out: Activity.
For data set [8] the target is unchanged. Put plainly: Reversible inhibition of recombinant human MAO-A using kynuramine as substrate assessed as residual activity at 100 times IC50 preincubated for 10 mins followed by 100 times compound dilution.
For data set [9] the target is unchanged. Put plainly: Competitive inhibition of recombinant human MAO-A using 0.01 to 0.5 mM kynuramine substrate by Lineweaver-Burk plot analysis.
Data set [10] has the same target. Put plainly: Irreversible inhibition of recombinant human MAO-A using kynuramine as substrate assessed as residual activity at 100 times IC50 preincubated for 10 mins followed by 100 times compound dilution.
The target is the same in data set [11]. Put plainly: Inhibition of recombinant human liver MAO-A expressed in yeast using kynuramine as substrate preincubated for 3 mins followed by substrate addition by double reciprocal plot analysis.
Data set [12] has the same target. Kind of data set: Competitive inhibition of recombinant human MAO-A using varying levels of kynuramine substrate after 5 mins by Lineweaver-Burk plot analysis.

Structures are written as SMILES.

`O=C1c2ccccc2C(=O)c2c(O)c(O)cc(O)c21` [PURPURIN]: the IC50 (commonly the concentration at which inhibition is half-maximal) in data set [1] is 2500 nM; in data set [2], more than 40000 nM. For the same compound, in [3], the inhibition (in general, the change of the read-out against control, counted positive when it falls) at 40 µM was 23.3%. Further, the TDI entry in [4] is given as “Active”. Further, the activity at 5 µM in [5] worked out at 36.6%; in [6], 55.2%; in data set [7], 54.4%. In data set [8], the Activity was 63.9 to 67.2%. The inhibitory constant (Ki) – broadly, a dissociation constant, usually derived from enzyme kinetics or from competition with a known ligand – in data set [9] came to 422 nM.
As to `C#CCN(C)CCCOc1ccc(Cl)cc1Cl` [CLORGILINE], the Activity in data set [10] lay within 24.9 to 47.9%.
For `O=C1c2ccccc2C(=O)c2c1ccc(O)c2O` [ATHRAQUINONES A], the figures for the half-inhibitory concentration (IC50) in [1] and in data set [2] were 30100 nM and more than 60000 nM, respectively.
On to `Cn1ccc2c3ccccc3nc-2c1`, for which the Ki in data set [11] turned out to be 1430 nM.
`CNc1ccccc1-c1nc(C(=O)OC)cs1`: the inhibition constant Ki in data set [12] was 1840 nM.
